Entries after “also recorded” stand apart in the source; their conditions may differ. Read-outs that look alike come from different tables or passages of the source.
How the values were obtained:
[1] = set-up: method as in PMID 98619; conditions: dosage of 14 mg/kg, rhesus monkeys; cited from earlier work
[2] = tested on: multi-resistant protein (MRP) efflux proteins; assay: PET Logan graphical analysis of brain VT after probenecid; assay type: in vivo, Sprague–Dawley rats; conditions: for Kp: Sprague-Dawley, rat, iv, with probenecid 150 mg/kg i.v., after probenecid 150 mg·kg^−1 i.v., n = 2, metabolite-corrected
Excerpt: (§1) Following cannulation of the femoral vein, animals were positioned in pairs in a double LSO/LYSO layer high-resolution research tomograph (CTI/Siemens, Knoxville, TN, USA). First, for attenuation and scatter correction purposes, a transmission scan was acquired using a 740-MBq two-dimensional fan-collimated ^137Cs (662 keV) moving point source. Next, a dynamic emission scan was acquired immediately following administration of 17.1 ± 2.1 MBq (mean ± SD) ^11C]phenytoin to each rat. Two animals had one single ^11C]phenytoin scan; two animals had two consecutive scans, and two had three consecutive scans. Finally, all animals underwent an ^18F]FDG scan before being euthanized. Tariquidar, 15 mg·kg^−1, was used to completely block P-gp, while probenecid, 150 mg·kg^−1, was used to inhibit multi-resistant protein (MRP) efflux proteins. Tariquidar and probenecid were administered i.v. 20 min prior to the scan start as a 10-min infusion. All animals, except one, were scanned without any treatment prior to the first ^11C]phenytoin scan. Of the animals that had two scans, one underwent two post-tariquidar scans (animal 4, Table 1). […] Animals that underwent three consecutive scans had one baseline, one post probenecid and one post-tariquidar scan. During each scan, emission data were acquired for 60 min in list mode and rebinned into the following frame sequence: 7 × 10, 1 × 20, 3 × 30, 2 × 60, 2 × 150, 2 × 300 and 4 × 600 s. Following corrections for decay, dead time, attenuation, random and scatter, scans were reconstructed using a 3D ordinary Poisson ordered subsets expectation maximization algorithm. […] PET image data were analyzed using the freely available software package Amide 0.9 [31]. A magnetic resonance (MR)-based rat brain atlas was used to define five regions of interest (ROIs): the hippocampus, occipital cortex, parietal cortex, caudate putamen and cerebellum. The MR atlas including all ROIs was aligned visually with the summed ^18F]FDG image for each rat. ROIs were then projected onto all frames of all ^11C]phenytoin scans, resulting in ^11C]phenytoin time-activity curves for each scan and rat.
(§2) During each [^11C]phenytoin scan, arterial blood samples of 0.1 mL were taken at 20 and 40 s and at 1, 2, 5, 15, 30 and 60 min after [^11C]phenytoin injection. For animals that underwent three scans, the amount of blood withdrawn was reduced by replacing the two samples at 15 and 30 min with a single 20-min sample. Plasma was obtained by centrifugation at 4,000 rpm for 5 min at 4°C, and activity in both plasma and whole blood was measured in an automated 1282 Compugamma CS Universal Gamma Counter (LKB Wallac, Turku, Finland), cross-calibrated against the PET scanner. Standardized uptake values (SUVs) as a function of time were derived by normalizing measured radioactivity concentrations against injected dose and body weight.
(§3) To obtain a model independent estimate of the brain-to-plasma partition coefficient, often referred to as volume of distribution, Logan graphical analysis was used. Before Logan analysis, both brain and plasma concentrations were corrected for labeled metabolites. As metabolite fractions were not measured at each plasma or mid-frame time point, linear regression was used to estimate the fraction of intact ^11C]phenytoin at each time point.

P-gp [3] = assay: PET Logan graphical analysis of brain VT, baseline and after tariquidar P-gp block; assay type: in vivo, Sprague–Dawley rats; conditions: for Kp: Sprague-Dawley; for Kp / Increase in cerebral distribution volume (VT) after tariquidar compared with baseline: rat; for P-gp substrate character: conclusion from tariquidar predosing studies in rats; for Increase in cerebral distribution volume (VT) after tariquidar compared with baseline: tariquidar 15 mg·kg^−1 predosing
Excerpt: as §1, §2, §3

P-gp [4] = assay: PET brain time-activity curves (SUV), baseline and after tariquidar P-gp block; assay type: in vivo, Sprague–Dawley rats
Excerpt: as §1, §2

O=C1N[11C](=O)NC1(c1ccccc1)c1ccccc1 [[^11C]phenytoin]
Brain uptake [1]: high brain uptake
Kp ([2]; caudate putamen (relative to plasma), read-out: VT (Logan), caudate putamen): 0.57 ± 0.01
Kp ([2]; cerebellum (relative to plasma), read-out: VT (Logan), cerebellum): 0.61 ± 0.01
Kp ([2]; hippocampus (relative to plasma), read-out: VT (Logan), hippocampus): 0.59
Kp ([2]; occipital cortex (relative to plasma), read-out: VT (Logan), occipital cortex): 0.59
Kp ([2]; parietal cortex (relative to plasma), read-out: VT (Logan), parietal cortex): 0.57 ± 0.03
Change in VT after probenecid (interaction with MRP) ([2]; probenecid 150 mg·kg^−1, n = 2, animals in poor condition): no indication of an increase in VT
Kp (P-gp [3]; caudate putamen (relative to plasma), intravenous, baseline, n = 5, metabolite-corrected plasma input and brain data, read-out: VT (Logan), caudate putamen): 0.98 ± 0.08
Kp (P-gp [3]; caudate putamen (relative to plasma), iv, with tariquidar 15 mg/kg i.v., after tariquidar 15 mg·kg^−1 i.v., n = 5, metabolite-corrected, read-out: VT (Logan), caudate putamen): 1.48 ± 0.12
Kp (P-gp [3]; cerebellum (relative to plasma), intravenous, baseline, n = 5, metabolite-corrected plasma input and brain data, read-out: VT (Logan), cerebellum): 1.02 ± 0.08
Kp (P-gp [3]; cerebellum (relative to plasma), iv, with tariquidar 15 mg/kg i.v., after tariquidar 15 mg·kg^−1 i.v., n = 5, metabolite-corrected, read-out: VT (Logan), cerebellum): 1.48 ± 0.09
Kp (P-gp [3]; hippocampus (relative to plasma), intravenous, baseline, n = 5, metabolite-corrected plasma input and brain data, read-out: VT (Logan), hippocampus): 0.96 ± 0.09
Kp (P-gp [3]; hippocampus (relative to plasma), iv, with tariquidar 15 mg/kg i.v., after tariquidar 15 mg·kg^−1 i.v., n = 5, metabolite-corrected, read-out: VT (Logan), hippocampus): 1.43 ± 0.07
Kp (P-gp [3]; occipital cortex (relative to plasma), intravenous, baseline, n = 5, metabolite-corrected plasma input and brain data, read-out: VT (Logan), occipital cortex): 0.91 ± 0.06
Kp (P-gp [3]; occipital cortex (relative to plasma), iv, with tariquidar 15 mg/kg i.v., after tariquidar 15 mg·kg^−1 i.v., n = 5, metabolite-corrected, read-out: VT (Logan), occipital cortex): 1.3 ± 0.11
Kp (P-gp [3]; parietal cortex (relative to plasma), intravenous, baseline, n = 5, metabolite-corrected plasma input and brain data, read-out: VT (Logan), parietal cortex): 0.91 ± 0.08
Kp (P-gp [3]; parietal cortex (relative to plasma), iv, with tariquidar 15 mg/kg i.v., after tariquidar 15 mg·kg^−1 i.v., n = 5, metabolite-corrected, read-out: VT (Logan), parietal cortex): 1.35 ± 0.11
P-gp substrate character (P-gp [3]): rather weak P-gp substrate; also recorded: moderate P-gp substrate
P-gp substrate character (P-gp [3]; listed as 11C]phenytoin): rather moderate affinity for P-gp
Increase in cerebral distribution volume (VT) after tariquidar compared with baseline (P-gp [3]): 45%
Increase in cerebral distribution volume (VT) after tariquidar compared with baseline (P-gp [3]; listed as 11C]phenytoin): about 45%
Brain SUV at 60 min (corrected for metabolites) (P-gp [4]; baseline scans): around 0.2
Maximum brain SUV (P-gp [4]; baseline scans): around 0.8
Brain SUV at 60 min (corrected for metabolites) (P-gp [4]; post-tariquidar scans): ~0.3
Maximum brain SUV (P-gp [4]; post-tariquidar scans): ~0.9
Time of maximum brain concentration after bolus injection (P-gp [4]; rats): approximately 5 min
Increase in brain SUV at 10 to 60 min after tariquidar (P-gp [4]; tariquidar 15 mg·kg^−1, rat, on average): about 50%

Reference: publication PMC3506555, “[^11C]phenytoin revisited: synthesis by [^11C]CO carbonylation and first evaluation as a P-gp tracer in rats” (EJNMMI Research, 2012)
